Data: US4775692A, “2,5,6,7-tetranor-4,8-inter-m-phenylene PGI2 derivatives” (Toray Industries, Inc., priority 1986, dated 1988)
In brackets after ≈: the same amount, converted by molar mass. Read-outs that look alike come from different tables or passages of the source.

Tests used:
[1] = tested on: corpus of stomach; assay: Gastric cytoprotection effect (lesion length / ulcer index after oral 0.2N NaOH); assay type: in vivo; conditions: 1 h, 30 min before oral 0.2N NaOH, lesion measured one hour later, read-out: Gastric cytoprotection effect ED50 (dose reducing the sore to 50% of control)
Text: Gastric cytoprotection effect
Gastric cytoprotection effect was studied according to the method by A. Robert (Gastroenterology, 77(3), 443, (1979)). Thirty min. after oral administration of the compound according to the invention, 0.2N NaOH was orally applied to the animals.
One hour later, the animals were killed under anesthesia by chloroform. The stomach was removed and fixed in a solution of 5% formalin. After fixation, the stomach was cut along the greater curvature. A total length of the lesion appearing on the corpus of stomach was then measured and served as an ulcer index.
The dose of the compound which may reduce the sore to 50% of that of the control was designated as ED50.
The gastric cytoprotection effects of the compounds according to the invention, which is thus represented by ED50, are summarized in Table 1.

[2] = tested on: gastric acid secretion; assay: Inhibiting effect of gastric acid secretion, pylorus-ligated rat (Shay); assay type: in vivo; conditions: pylorus ligation, injected into duodenum, 5 hours
Method: (§1) Inhibiting effect of gastric acid secretion
Under anesthesia by ether, the abdomen of the rat was incised in its median and a pylorus was ligated with silk thread according to Shay (Gastroenterology 5, 43 (1945)). Simultaneously, the compound was injected into a duodenum of the rat and then the incision was closed.
Five hours later, the median-incision of the abdomen was again performed and the esophargus was ligated and then the whole stomach was removed.
The stomach was cut along a greater curvature and the contents thereof was transferred into a graduated centrifuge tube. After centrifugation at 3,000 rpm for 10 min., a volume of a gastric juice was measured and a part of its supernatant was titrated to pH 7 with 0.1N NaOH using a pH-stat (Radio meter).
The mean dose of the compounds which may reduce the volume of gastric juice (ml) and acidity (mEq/ml) of a group of five animals to 50% of that of the controls were designated respectively as ED50.

[3] = tested on: gastric acid secretion; assay: Inhibiting effect of gastric acid secretion, perfused stomach, pentagastrin-stimulated (Ghosh & Schild); assay type: in vivo, male SD rat; conditions: urethane-anesthetized SD rat, pentagastrin 0.05 μg/kg/min, injected through femoral vein; ratio of area index to that of PGE2
Method: as §1
A male SD rat was incised in the abdomen under anesthesia by urethane and the lumen of a stomach was perfused with a physiolosical saline solution through a double-cannula inserted into a lumen of the stomach. A pH of a draining gastric acid was monitored using a pH-meter (M. Ghosh, H. Schild, Br. J. Pharmacol. 13, 54 (1958)). The secretion of gastric acid was stimulated by a continuous infusion of the pentagastrin at a rate of 0.05 μg/kg/min. When the pH of gastric acid became stable value of about 4, the compound was injected through a femoral vein. As an index of the inhibiting effect of gastric acid secretion by the compound was calculated from the area surrounded by the curve drawn by the time course of the pH of gastric acid, from the point increase by the injection of the compound and to the point it came back to baseline. The index thus obtained was compared to that of PGE2 and a ratio therebetween was shown in Table 3, as a relative effect of the compound.

[4] = tested on: platelet aggregation; assay: Inhibiting effect of platelet aggregation (ADP-induced, human platelet-rich plasma); assay type: cell-based; conditions: human PRP, compound added one minute before ADP
Method: Inhibiting effect of platelet aggregation
The blood taken from a human median cubital vein was centrifuged at 800 rpm for 10 min. and a supernatant thereof was used as a platelet-rich plasma (PRP). An aliquot of PRP thus obtained was put into a small tube, to which […] (ADP) was added to induce platelet aggregation. The extent of aggregation was determined by detecting a change in turbidity of the aliquot by an apparatus for measuring platelet aggregation (Rika-Denki, Tokyo). The compound was added one minute before the addition of ADP. The concentration of the compound which may reduce the platelet aggregation, 50% of the control was designated as IC50.

[5] = tested on: blood pressure of the carotid; assay: Hypotensive effect (carotid blood pressure, anesthetized rat); assay type: in vivo; conditions: chloralose-anesthetized Wistar male rat, injected via catheter connected to femoral artery; read-out: Hypotensive effect ED25 (dose reducing blood pressure by 25 mmHg)
Method: A catheter was inserted to a carotid of the Wistar male rat under chloralose anesthesia. Another end of the catheter was connected to a polygraph with a pressure-transducer to detect a blood pressure of the carotid. The compound was injected via catheter connected to a femoral artery. The dose of the compound which may reduce the blood pressure in an amount of 25 mmHg was designated as ED25.

[6] = acidity (mEq/ml) to 50% of controls, read-out: Inhibiting effect of gastric acid secretion ED50, Acidity
[7] = volume (ml) to 50% of controls, read-out: Inhibiting effect of gastric acid secretion ED50, Volume of the gastric juice

IC50 [4] [ng/mL]	SMILES	ED50 [1] [µg/kg]	ED50 [2, 6] [µg/kg]	ED50 [2, 7] [µg/kg]	Inhibiting effect of gastric acid secretion, Relative effect (PGE2 = 1) [3]	ED (25 mmHg) [5] [µg/kg]
0.56 (≈ 1.49 nM)	CCCCC[C@H](O)/C=C/[C@@H]1[C@H]2c3cccc(OCC(=O)O)c3O[C@H]2C[C@H]1O (relative stereo) [Compound 156, 2,5,6,7-Tetranor-4-oxa-4,8-inter-m-phenylene PGI2]	11.3	2330	330	39	0.46
0.41 (≈ 1.05 nM)	CCCCCC[C@H](O)/C=C/[C@@H]1[C@H]2c3cccc(OCC(=O)O)c3O[C@H]2C[C@H]1O (relative stereo) [Compound 160, 20a-Homo-2,5,6,7-tetranor-4-oxa-4,8-inter-m-phenylene PGI2]	–	450	97	13	0.23
1.35 (≈ 3.87 nM)	CC(C)[C@H](O)/C=C/[C@@H]1[C@H]2c3cccc(OCC(=O)O)c3O[C@H]2C[C@H]1O (relative stereo) [Compound 164, 16-Methyl-2,5,6,7,18,19,20-heptanor-4-oxa-4,8-inter-m-phenylene PGI2]	9.6	890	1340	12	–
1.54 (≈ 4.25 nM)	CC(C)(C)[C@H](O)/C=C/[C@@H]1[C@H]2c3cccc(OCC(=O)O)c3O[C@H]2C[C@H]1O (relative stereo) [Compound 168, 16,16-Dimethyl-2,5,6,7,18,19,20-heptanor-4-oxa-4,8-inter-m-phenylene PGI2]	30.5	–	–	3.5	0.49
2.1 (≈ 5.58 nM)	CCC(C)(C)[C@H](O)/C=C/[C@@H]1[C@H]2c3cccc(OCC(=O)O)c3O[C@H]2C[C@H]1O (relative stereo) [Compound 172, 16,16-Dimethyl-2,5,6,7,19,20-hexanor-4-oxa-4,8-inter-m-phenylene PGI2]	4.6	–	–	19	0.72
24 (≈ 57.3 nM)	CCCCCC(C)(C)[C@H](O)/C=C/[C@@H]1[C@H]2c3cccc(OCC(=O)O)c3O[C@H]2C[C@H]1O (relative stereo) [Compound 184, 16,16-Dimethyl-20a-homo-2,5,6,7-tetranor-4-oxa-4,8-inter-m-phenylene PGI2]	2.3	–	–	85	0.5
6.9 (≈ 16 nM)	CCCCCCC(C)(C)[C@H](O)/C=C/[C@@H]1[C@H]2c3cccc(OCC(=O)O)c3O[C@H]2C[C@H]1O (relative stereo) [Compound 188, 16,16-Dimethyl-20a,20b-dihomo-2,5,6,7-tetranor-4-oxa-4,8-inter-m-phenylene PGI2]	2.8	–	–	23	1.5
8 (≈ 17.9 nM)	CCCCCCCC(C)(C)[C@H](O)/C=C/[C@@H]1[C@H]2c3cccc(OCC(=O)O)c3O[C@H]2C[C@H]1O (relative stereo) [Compound 192, 16,16-Dimethyl-20a,20b,20c-trihomo-2,5,6,7-tetranor-4-oxa-4,8-inter-m-phenylene PGI2]	3.9	–	–	0.7	0.59
0.37 (≈ 0.915 nM)	CCCC(C)(C)C[C@H](O)/C=C/[C@@H]1[C@H]2c3cccc(OCC(=O)O)c3O[C@H]2C[C@H]1O (relative stereo) [Compound 200, 17,17-Dimethyl-2,5,6,7-tetranor-4-oxa-4,8-inter-m-phenylene PGI2]	3.6	–	–	3.0	0.16
0.47 (≈ 1.2 nM)	CCCCC(C)[C@H](O)/C=C/[C@@H]1[C@H]2c3cccc(OCC(=O)O)c3O[C@H]2C[C@H]1O (relative stereo) [Compound 208, 16-Methyl-2,5,6,7-tetranor-4-oxa-4,8-inter-m-phenylene PGI2]	0.92	270	140	45	0.074
30 (≈ 76.8 nM)	CCCCCC(C)(O)/C=C/[C@@H]1[C@H]2c3cccc(OCC(=O)O)c3O[C@H]2C[C@H]1O (relative stereo) [Compound 210, 15-Methyl-2,5,6,7-tetranor-4-oxa-4,8-inter-m-phenylene PGI2]	109	–	–	13	0.89
0.24 (≈ 0.618 nM)	O=C(O)COc1cccc2c1O[C@H]1C[C@@H](O)[C@H](/C=C/[C@@H](O)CC3CCCC3)[C@@H]21 (relative stereo) [Compound 238, 16-cyclopentyl-2,5,6,7,17,18,19,20-octanor-4-oxa-4,8-inter-m-phenylene PGI2]	4.9	–	–	11	0.14
2.3 (≈ 5.8 nM)	Cc1ccccc1[C@H](O)/C=C/[C@@H]1[C@H]2c3cccc(OCC(=O)O)c3O[C@H]2C[C@H]1O (relative stereo) [Compound 266, 15-(o-methylphenyl)-2,5,6,7,16,17,18,19,20-nonanor-4-oxa-4,8-inter-m-phenylene PGI2]	31.2	–	–	7.2	0.32
1.6 (≈ 4.04 nM)	Cc1ccc([C@H](O)/C=C/[C@@H]2[C@H]3c4cccc(OCC(=O)O)c4O[C@H]3C[C@H]2O)cc1 (relative stereo) [Compound 270, 15-(p-methylphenyl)-2,5,6,7,16,17,18,19,20-nonanor-4-oxa-4,8-inter-m-phenylene PGI2]	25.5	–	–	16	0.12
13 (≈ 29.6 nM)	CC(C)(Cc1ccccc1)[C@H](O)/C=C/[C@@H]1[C@H]2c3cccc(OCC(=O)O)c3O[C@H]2C[C@H]1O (relative stereo) [Compound 297, 16,16-dimethyl-17-phenyl-2,5,6,7,18,19,20-heptanor-4-oxa-4,8-inter-m-phenylene PGI2]	–	–	–	75	0.34
90 (≈ 221 nM)	CCOCC(C)(C)[C@H](O)/C=C/[C@@H]1[C@H]2c3cccc(OCC(=O)O)c3O[C@H]2C[C@H]1O (relative stereo) [Compound 305, 16,16-Dimethyl-2,5,6,7-tetranor-4,18-dioxa-4,8-inter-m-phenylene PGI2]	13.1	–	–	99	0.55
0.075 (≈ 0.192 nM)	CCC[C@H](C)C[C@H](O)/C=C/[C@@H]1[C@H]2c3cccc(OCC(=O)O)c3O[C@H]2C[C@H]1O [Compound 213, 17-(S)-Methyl-2,5,6,7-tetranor-4-oxa-4,8-inter-m-phenylene PGI2]	–	230	87	41	0.023
0.18 (≈ 0.445 nM)	CCCC[C@H](C)C[C@H](O)/C=C/[C@@H]1[C@H]2c3cccc(OCC(=O)O)c3O[C@H]2C[C@H]1O [Compound 218, (17S)-17-Methyl-20a-homo-2,5,6,7-tetranor-4-oxa-4,8-inter-m-phenylene PGI2]	0.27	–	–	–	0.045
